What all share (format): biochemical
The target in assay [1] is T1, MAGL (Mus musculus, UniProt O35678).
T1 construct: Proteomes (mouse brain membrane fraction or cell lysates); from tissue; host or cells: mouse brain membrane fraction (or unspecified cell lysates)
T1 sequence (O35678 1-303): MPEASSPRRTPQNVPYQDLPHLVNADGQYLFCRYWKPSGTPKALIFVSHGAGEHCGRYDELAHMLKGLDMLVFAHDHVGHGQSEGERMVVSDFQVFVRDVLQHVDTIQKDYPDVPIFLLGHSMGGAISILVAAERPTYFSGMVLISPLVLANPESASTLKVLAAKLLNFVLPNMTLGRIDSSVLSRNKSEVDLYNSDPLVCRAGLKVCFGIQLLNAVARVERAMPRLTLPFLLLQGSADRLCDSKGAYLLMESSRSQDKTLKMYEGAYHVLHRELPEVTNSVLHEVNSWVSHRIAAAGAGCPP
The assay can be described thus: In vitro competitive activity-based protein profiling (mouse), MAGL. The following applies: for IC50: mouse brain membrane fraction or cell lysates, 30 min preincubation at 37° C, FP-Rh probe; for inhibition at 1 µM: mouse proteome, in vitro, read-out: % Inhibition at 1 μM MAGL. How it is done:
(§1) In Vitro Competitive Activity-Based Protein Profiling (Mouse).
(§2) Proteomes (mouse brain membrane fraction or cell lysates) (50 μL, 1.0 mg/mL total protein concentration) were preincubated with varying concentrations of inhibitors at 37° C. After 30 min, FP-Rh (1.0 μL, 50 μM in DMSO) was added and the mixture was incubated for another 30 min at 37° C. Reactions were quenched with SDS loading buffer (50 μL-4×) and run on SDS-PAGE.

Assay [2] deals with T2, FAAH (Mus musculus, UniProt O08914).
T2 construct: Proteomes (mouse brain membrane fraction or cell lysates); from tissue; host or cells: mouse brain membrane fraction (or unspecified cell lysates)
T2 sequence (O08914 1-579): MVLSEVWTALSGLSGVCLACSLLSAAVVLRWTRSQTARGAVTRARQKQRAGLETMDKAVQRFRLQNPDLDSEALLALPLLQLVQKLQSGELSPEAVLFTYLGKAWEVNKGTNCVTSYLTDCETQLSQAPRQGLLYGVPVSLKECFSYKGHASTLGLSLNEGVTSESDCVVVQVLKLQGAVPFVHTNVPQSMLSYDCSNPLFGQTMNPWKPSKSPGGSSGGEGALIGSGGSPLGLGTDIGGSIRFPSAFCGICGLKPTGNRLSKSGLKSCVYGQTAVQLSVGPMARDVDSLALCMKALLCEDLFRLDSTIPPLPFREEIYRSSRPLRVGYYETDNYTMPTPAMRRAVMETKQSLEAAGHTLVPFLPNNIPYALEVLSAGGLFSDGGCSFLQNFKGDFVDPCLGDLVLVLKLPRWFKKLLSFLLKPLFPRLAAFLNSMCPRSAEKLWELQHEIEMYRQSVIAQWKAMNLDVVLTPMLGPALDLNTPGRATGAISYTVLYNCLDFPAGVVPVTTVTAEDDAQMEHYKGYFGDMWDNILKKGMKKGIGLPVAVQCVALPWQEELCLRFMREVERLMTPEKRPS
The assay can be described thus: In vitro competitive activity-based protein profiling (mouse), FAAH. The settings on record: for IC50: mouse brain membrane fraction or cell lysates, 30 min preincubation at 37° C, FP-Rh probe; for inhibition at 1 µM: mouse proteome, in vitro. On the procedure:
as §1
Proteomes (mouse brain membrane fraction or cell lysates) (50 μL, 1.0 mg/mL total protein concentration) were preincubated with varying concentrations of inhibitors at 37° C. After 30 min, FP-Rh (1.0 μL, 50 μM in DMSO) was added and the mixture was incubated for another 30 min at 37° C. Reactions were quenched with SDS loading buffer (50 μL-4×) and run on SDS-PAGE. Following gel imaging, serine hydrolase activity was determined by measuring fluorescent intensity of gel bands corresponding to MAGL, ABHD6 and FAAH using ImageJ 1.43u software.

Assay [3] deals with T3, ABHD6 (Mus musculus, UniProt Q8R2Y0).
T3 construct: Proteomes (mouse brain membrane fraction or cell lysates); from tissue; host or cells: mouse brain membrane fraction (or unspecified cell lysates)
T3 sequence (Q8R2Y0 1-336): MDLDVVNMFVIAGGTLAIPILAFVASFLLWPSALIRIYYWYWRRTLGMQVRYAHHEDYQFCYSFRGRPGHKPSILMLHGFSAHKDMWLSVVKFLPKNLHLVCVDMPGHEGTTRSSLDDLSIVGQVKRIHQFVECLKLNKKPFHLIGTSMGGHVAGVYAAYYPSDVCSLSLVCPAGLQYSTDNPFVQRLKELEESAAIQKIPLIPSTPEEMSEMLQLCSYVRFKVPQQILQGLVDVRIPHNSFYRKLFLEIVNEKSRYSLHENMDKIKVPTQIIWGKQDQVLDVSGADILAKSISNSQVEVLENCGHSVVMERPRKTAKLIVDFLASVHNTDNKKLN
Nature of the assay: In vitro competitive activity-based protein profiling (mouse), ABHD6. The settings on record: for IC50: mouse brain membrane fraction or cell lysates, 30 min preincubation at 37° C, FP-Rh probe; for inhibition at 1 µM: mouse proteome, in vitro, read-out: % Inhibition at 1 μM ABHD6. On the procedure: as §1, §2

Each structure is given as a SMILES string.

The term IC50 denotes the concentration that gives 50% inhibition. Lower therefore signals greater potency in that assay. As for `C#CCO[C@@H]1CCN(c2cc(C(F)(F)F)ccc2CN2CCN(C(=O)OC(C(F)(F)F)C(F)(F)F)CC2)C1` [Example 2, 1,1,1,3,3,3-hexafluoropropan-2-yl (R)-4-(2-(3-(prop-2-yn-1-yloxy)pyrrolidin-1-yl)-4-(trifluoromethyl)benzyl)piperazine-1-carboxylate], the IC50 in assay [1] was < 100 nM; in assay [2], > 1000 nM; in assay [3] it was > 1000 nM.

Take `COC(=O)c1cc(CN2CCN(C(=O)OC(C(F)(F)F)C(F)(F)F)CC2)ccc1N1CCOCC1` [Example 5, 1,1,1,3,3,3-hexafluoropropan-2-yl 4-(3-(methoxycarbonyl)-4-morpholinobenzyl)piperazine-1-carboxylate]: the results for the IC50 in assay [1], in assay [2] and in assay [3] were < 100 nM, > 1000 nM and 100 to 1000 nM, respectively.

Usually inhibition stands for how much of the control response was suppressed. Regarding `COc1c(CN2CCN(C(C)=O)CC2)cccc1CN1CCN(C(=O)OC(C(F)(F)F)C(F)(F)F)CC1` [Example 7, 1,1,1,3,3,3-hexafluoropropan-2-yl 4-(3-((4-acetylpiperazin-1-yl)methyl)-2-methoxybenzyl)piperazine-1-carboxylate], the inhibition at 1 µM in assay [1] is > 75%; in assay [2], < 25%; in assay [3], > 75%. Also, the IC50 is 100 to 1000 nM in assay [1], > 1000 nM in assay [2] and 100 to 1000 nM in assay [3].

Take `Cc1c(CN2CCN(C(=O)OC(C(F)(F)F)C(F)(F)F)CC2)cccc1CN1CCN(S(C)(=O)=O)CC1` [Example 8, 1,1,1,3,3,3-hexafluoropropan-2-yl 4-(2-methyl-3-((4-(methylsulfonyl)piperazin-1-yl)methyl)benzyl)piperazine-1-carboxylate]: the inhibition at 1 µM is > 75% in assay [1], < 25% in assay [2] and > 75% in assay [3]. Also, the IC50 in assay [1] is < 100 nM; in assay [2] it was > 1000 nM; in assay [3], < 100 nM.

Take `COc1c(CN2CCC(F)CC2)cccc1CN1CCN(C(=O)OC(C(F)(F)F)C(F)(F)F)CC1` [Example 9, 1,1,1,3,3,3-hexafluoropropan-2-yl 4-(3-((4-fluoropiperidin-1-yl)methyl)-2-methoxybenzyl)piperazine-1-carboxylate]: the inhibition at 1 µM in assay [1] is > 75%; in assay [2], < 25%; in assay [3] it was > 75%. Besides, the IC50 in assay [1] was < 100 nM; in assay [2], > 1000 nM; in assay [3] it was 100 to 1000 nM.

With `Cc1c(CN2CCC(NS(C)(=O)=O)CC2)cccc1CN1CCN(C(=O)OC(C(F)(F)F)C(F)(F)F)CC1` [Example 10, 1,1,1,3,3,3-hexafluoropropan-2-yl 4-(2-methyl-3-((4-(methylsulfonamido)piperidin-1-yl)methyl)benzyl)piperazine-1-carboxylate], the inhibition at 1 µM in assay [1] is > 75%; in assay [2], < 25%; in assay [3], > 75%. The IC50 in assay [1] is < 100 nM; in assay [2], > 1000 nM; in assay [3], 100 to 1000 nM.

On to `CC(=O)NC1CCN(Cc2cccc(CN3CCN(C(=O)OC(C(F)(F)F)C(F)(F)F)CC3)c2C)CC1` [Example 11, 1,1,1,3,3,3-hexafluoropropan-2-yl 4-(3-((4-acetamidopiperidin-1-yl)methyl)-2-methylbenzyl)piperazine-1-carboxylate], for which the inhibition at 1 µM in assay [1] is > 75%; in assay [2] it was < 25%; in assay [3], 25 to 75%. Moreover, the half-maximal inhibitory concentration (IC50) in assay [1] is 100 to 1000 nM; in assay [2], > 1000 nM; in assay [3] it was 100 to 1000 nM.

For the molecule `Cc1c(CN2CCN(C(=O)OC(C(F)(F)F)C(F)(F)F)CC2)cccc1CN1CCC(F)(F)CC1` [Example 12, 1,1,1,3,3,3-hexafluoropropan-2-yl 4-(3-((4,4-difluoropiperidin-1-yl)methyl)-2-methylbenzyl)piperazine-1-carboxylate], the inhibition at 1 µM in assay [1] is > 75%; in assay [2] it was < 25%; in assay [3], > 75%. Besides, the concentration for half-maximal inhibition (IC50) in assay [1] was < 100 nM; in assay [2] it was > 1000 nM; in assay [3], 100 to 1000 nM.

Take `Cc1c(CN2CCCC2)cccc1CN1CCN(C(=O)OC(C(F)(F)F)C(F)(F)F)CC1` [Example 13, 1,1,1,3,3,3-hexafluoropropan-2-yl 4-(2-methyl-3-(pyrrolidin-1-ylmethyl)benzyl)piperazine-1-carboxylate]: the inhibition at 1 µM in assay [1] was > 75%; in assay [2] it was < 25%; in assay [3], > 75%. Also, the IC50 was 100 to 1000 nM in assay [1], > 1000 nM in assay [2] and 100 to 1000 nM in assay [3].

Take `CC(=O)N1CCN(Cc2cccc(CN3CCN(C(=O)OC(C(F)(F)F)C(F)(F)F)CC3)c2C)CC1` [Example 14, 1,1,1,3,3,3-hexafluoropropan-2-yl 4-(3-((4-acetylpiperazin-1-yl)methyl)-2-methylbenzyl)piperazine-1-carboxylate]: the figures for the inhibition at 1 µM in assay [1], in assay [2] and in assay [3] were > 75%, < 25% and > 75%, respectively. The IC50 was < 100 nM in assay [1], > 1000 nM in assay [2] and < 100 nM in assay [3].

With `Cc1c(CN2CCC(F)CC2)cccc1CN1CCN(C(=O)OC(C(F)(F)F)C(F)(F)F)CC1` [Example 15, 1,1,1,3,3,3-hexafluoropropan-2-yl 4-(3-((4-fluoropiperidin-1-yl)methyl)-2-methylbenzyl)piperazine-1-carboxylate], the values for the inhibition at 1 µM in assay [1], in assay [2] and in assay [3] were > 75%, < 25% and > 75%, respectively. The IC50 in assay [1] was < 100 nM; in assay [2] it was > 1000 nM; in assay [3], 100 to 1000 nM.

As to `CC(=O)N[C@@H]1CCN(Cc2cccc(CN3CCN(C(=O)OC(C(F)(F)F)C(F)(F)F)CC3)c2C)C1` [Example 17, 1,1,1,3,3,3-hexafluoropropan-2-yl (R)-4-(3-((3-acetamidopyrrolidin-1-yl)methyl)-2-methylbenzyl)piperazine-1-carboxylate], the inhibition at 1 µM in assay [1] is > 75%; in assay [2] it was < 25%; in assay [3], > 75%. In addition, the IC50 in assay [1] was 100 to 1000 nM; in assay [2], > 1000 nM; in assay [3], 100 to 1000 nM.

As for `CC(=O)N[C@H]1CCN(Cc2cccc(CN3CCN(C(=O)OC(C(F)(F)F)C(F)(F)F)CC3)c2C)C1` [Example 18, 1,1,1,3,3,3-hexafluoropropan-2-yl (S)-4-(3-((3-acetamidopyrrolidin-1-yl)methyl)-2-methylbenzyl)piperazine-1-carboxylate], the inhibition at 1 µM was > 75% in assay [1], < 25% in assay [2] and > 75% in assay [3]. Moreover, the IC50 in assay [1] was 100 to 1000 nM; in assay [2], > 1000 nM; in assay [3] it was 100 to 1000 nM.

For `Cc1c(CN2CCN(C(=O)OC(C(F)(F)F)C(F)(F)F)CC2)cccc1CN1CCCC[C@H]1C` [Example 19, 1,1,1,3,3,3-hexafluoropropan-2-yl (R)-4-(2-methyl-3-((2-methylpiperidin-1-yl)methyl)benzyl)piperazine-1-carboxylate], the inhibition at 1 µM in assay [1] was > 75%; in assay [2] it was < 25%; in assay [3] it was > 75%. Moreover, the IC50 was 100 to 1000 nM in assay [1], > 1000 nM in assay [2] and 100 to 1000 nM in assay [3].

The values above are taken from patent US9771341B2, “Piperazine carbamates and methods of making and using same” (Abide Therapeutics, Inc., priority 2015, dated 2017).
